According to ChEMBL document CHEMBL1124768 (1990):

Key:
Assay type in all cases: functional
Rattus norvegicus [1] = experiment: Inhibitory activity was measured on carrageenan-induced paw edema at a dose of 100 mg/Kg at 4 hours after intraperitoneal administration in rats; conditions: ip
Rattus norvegicus [2] = experiment: Inhibition of carrageenan-induced 4 hours after 50 mg/kg i.p. administration in rats.; conditions: ip, route intraperitoneal
Rattus norvegicus [3] = experiment: Inhibitory activity was measured on carrageenan-induced paw edema at a dose of 25 mg/Kg at 4 hours after intraperitoneal administration in rats; conditions: ip

Compound	inhibition in vivo at 100 mg/kg (Rattus norvegicus [1]) [%]	inhibition in vivo at 50 mg/kg (Rattus norvegicus [2]) [%]	inhibition in vivo at 25 mg/kg (Rattus norvegicus [3]) [%]
CC(C)=NOCCC(=O)O	35	21	
O=C(O)CCO/N=C/c1ccccc1		66	15
C/C(=N\OCCC(=O)O)C1CC1		16	
CC/C(=N\OCCC(=O)O)c1ccccc1	20	28	19
CCC(/C=N/OCCC(=O)O)CC		0	
O=C(O)CCO/N=C/C1CCCCC1		0	
CCCC(CCC)=NOCCC(=O)O		0	
C/C(=N\OCCC(=O)O)C1CCCCC1		0	
CC(C)C(=NOCCC(=O)O)C(C)C		12	
O=C(O)CCON=C1c2ccccc2-c2ccccc21		0	
O=C(O)CCON=C(c1ccccc1)c1ccccc1		11	
O=C(O)CCO/N=C1/CC2CCC1C2 (stereo not drawn)		16	
C/C(=N\OCCC(=O)O)c1ccccc1	31	40	23
O=C(O)CCO/N=C/c1cccs1		0	
O=C(O)CCO/N=C\c1ccccc1		0	
O=C(O)CCON=C1C2CC3CC(C2)CC1C3		19	
O=C(O)CCO/N=C/c1ccco1		15	
CC/C(=N\OCCC(=O)O)C(C)C	< 27	35	21
O=C(O)Cc1ccccc1Nc1c(Cl)cccc1Cl [DICLOFENAC]		67	31
